Measured values published in the supplement of paper PMC6411743.

Compound: Nc1ncnc2c1ncn2[C@@H]1O[C@H](COP(=O)(O)OP(=O)(O)OP(=O)(O)O)[C@@H](O)[C@H]1O [adenosine triphosphate]
Experiment: pEC50 of ATP-induced change in protein thermal stability (2D-TPP)
Experimental: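 2D thermal proteome profiling in mechanically disrupted Jurkat crude lysate. Lysate was treated 10 min at room temperature with Na-ATP (0, 0.005, 0.05, 0.5, 2 mM), heated to 12 temperatures (42-63.9 °C) for 3 min, and soluble protein was quantified by TMT10 LC-MS/MS. pEC50 is the median over replicates of dose-response fits at the lowest temperature showing a fold change of at least 1.5 (FDR-controlled hits).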

Chain of UniProt Q9Y6V7 (Q9Y6V7 whole entry): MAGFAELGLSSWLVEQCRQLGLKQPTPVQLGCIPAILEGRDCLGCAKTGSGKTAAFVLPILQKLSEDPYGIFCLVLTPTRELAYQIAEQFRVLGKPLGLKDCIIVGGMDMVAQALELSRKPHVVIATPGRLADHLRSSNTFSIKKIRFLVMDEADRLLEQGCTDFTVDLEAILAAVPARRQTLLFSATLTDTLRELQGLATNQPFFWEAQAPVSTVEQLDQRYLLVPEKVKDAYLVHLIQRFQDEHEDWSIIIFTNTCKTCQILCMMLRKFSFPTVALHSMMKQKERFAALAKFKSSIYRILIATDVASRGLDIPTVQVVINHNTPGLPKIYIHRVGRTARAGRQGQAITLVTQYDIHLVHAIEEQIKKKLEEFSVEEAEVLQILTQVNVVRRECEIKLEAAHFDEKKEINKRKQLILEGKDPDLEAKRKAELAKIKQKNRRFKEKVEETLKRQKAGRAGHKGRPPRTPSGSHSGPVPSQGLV
Chain of UniProt Q9NSD9 (Q9NSD9 whole entry): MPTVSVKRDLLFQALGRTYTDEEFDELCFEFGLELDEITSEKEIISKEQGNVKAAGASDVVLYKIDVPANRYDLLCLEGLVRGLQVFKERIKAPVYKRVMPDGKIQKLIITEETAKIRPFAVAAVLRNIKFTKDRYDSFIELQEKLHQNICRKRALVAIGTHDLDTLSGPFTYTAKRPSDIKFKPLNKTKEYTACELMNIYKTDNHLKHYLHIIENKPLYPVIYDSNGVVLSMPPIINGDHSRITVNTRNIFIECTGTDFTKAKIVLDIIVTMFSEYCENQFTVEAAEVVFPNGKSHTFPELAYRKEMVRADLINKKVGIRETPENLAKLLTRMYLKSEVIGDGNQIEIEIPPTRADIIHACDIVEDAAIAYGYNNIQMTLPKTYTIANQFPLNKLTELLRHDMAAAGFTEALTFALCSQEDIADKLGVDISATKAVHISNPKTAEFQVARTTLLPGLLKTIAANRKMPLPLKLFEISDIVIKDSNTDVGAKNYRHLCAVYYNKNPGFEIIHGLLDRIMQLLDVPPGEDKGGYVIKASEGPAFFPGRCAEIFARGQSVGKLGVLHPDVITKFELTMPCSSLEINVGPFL
Chain of UniProt Q9UNI6 (Q9UNI6 whole entry): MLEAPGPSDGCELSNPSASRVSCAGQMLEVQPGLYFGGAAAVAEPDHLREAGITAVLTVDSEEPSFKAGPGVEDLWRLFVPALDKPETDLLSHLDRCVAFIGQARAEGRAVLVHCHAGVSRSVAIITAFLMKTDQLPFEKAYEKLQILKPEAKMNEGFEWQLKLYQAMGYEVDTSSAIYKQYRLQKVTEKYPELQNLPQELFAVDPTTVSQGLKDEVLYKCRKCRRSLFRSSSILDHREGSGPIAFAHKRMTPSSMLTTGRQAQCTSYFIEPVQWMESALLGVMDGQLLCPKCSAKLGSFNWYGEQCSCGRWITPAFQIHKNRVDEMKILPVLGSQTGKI
Chain of UniProt P38919 (P38919 whole entry): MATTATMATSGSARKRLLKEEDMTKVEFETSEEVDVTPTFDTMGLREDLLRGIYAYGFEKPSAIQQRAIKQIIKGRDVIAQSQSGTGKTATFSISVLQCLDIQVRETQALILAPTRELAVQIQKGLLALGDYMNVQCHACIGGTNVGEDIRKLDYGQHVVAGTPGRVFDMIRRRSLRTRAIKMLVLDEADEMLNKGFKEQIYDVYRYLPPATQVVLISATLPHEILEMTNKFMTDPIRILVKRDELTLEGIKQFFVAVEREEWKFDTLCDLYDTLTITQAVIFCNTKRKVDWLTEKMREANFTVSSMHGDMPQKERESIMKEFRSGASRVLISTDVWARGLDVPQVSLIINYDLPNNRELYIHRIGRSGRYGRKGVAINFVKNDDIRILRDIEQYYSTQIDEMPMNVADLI
Chain of UniProt P26358 (P26358 whole entry): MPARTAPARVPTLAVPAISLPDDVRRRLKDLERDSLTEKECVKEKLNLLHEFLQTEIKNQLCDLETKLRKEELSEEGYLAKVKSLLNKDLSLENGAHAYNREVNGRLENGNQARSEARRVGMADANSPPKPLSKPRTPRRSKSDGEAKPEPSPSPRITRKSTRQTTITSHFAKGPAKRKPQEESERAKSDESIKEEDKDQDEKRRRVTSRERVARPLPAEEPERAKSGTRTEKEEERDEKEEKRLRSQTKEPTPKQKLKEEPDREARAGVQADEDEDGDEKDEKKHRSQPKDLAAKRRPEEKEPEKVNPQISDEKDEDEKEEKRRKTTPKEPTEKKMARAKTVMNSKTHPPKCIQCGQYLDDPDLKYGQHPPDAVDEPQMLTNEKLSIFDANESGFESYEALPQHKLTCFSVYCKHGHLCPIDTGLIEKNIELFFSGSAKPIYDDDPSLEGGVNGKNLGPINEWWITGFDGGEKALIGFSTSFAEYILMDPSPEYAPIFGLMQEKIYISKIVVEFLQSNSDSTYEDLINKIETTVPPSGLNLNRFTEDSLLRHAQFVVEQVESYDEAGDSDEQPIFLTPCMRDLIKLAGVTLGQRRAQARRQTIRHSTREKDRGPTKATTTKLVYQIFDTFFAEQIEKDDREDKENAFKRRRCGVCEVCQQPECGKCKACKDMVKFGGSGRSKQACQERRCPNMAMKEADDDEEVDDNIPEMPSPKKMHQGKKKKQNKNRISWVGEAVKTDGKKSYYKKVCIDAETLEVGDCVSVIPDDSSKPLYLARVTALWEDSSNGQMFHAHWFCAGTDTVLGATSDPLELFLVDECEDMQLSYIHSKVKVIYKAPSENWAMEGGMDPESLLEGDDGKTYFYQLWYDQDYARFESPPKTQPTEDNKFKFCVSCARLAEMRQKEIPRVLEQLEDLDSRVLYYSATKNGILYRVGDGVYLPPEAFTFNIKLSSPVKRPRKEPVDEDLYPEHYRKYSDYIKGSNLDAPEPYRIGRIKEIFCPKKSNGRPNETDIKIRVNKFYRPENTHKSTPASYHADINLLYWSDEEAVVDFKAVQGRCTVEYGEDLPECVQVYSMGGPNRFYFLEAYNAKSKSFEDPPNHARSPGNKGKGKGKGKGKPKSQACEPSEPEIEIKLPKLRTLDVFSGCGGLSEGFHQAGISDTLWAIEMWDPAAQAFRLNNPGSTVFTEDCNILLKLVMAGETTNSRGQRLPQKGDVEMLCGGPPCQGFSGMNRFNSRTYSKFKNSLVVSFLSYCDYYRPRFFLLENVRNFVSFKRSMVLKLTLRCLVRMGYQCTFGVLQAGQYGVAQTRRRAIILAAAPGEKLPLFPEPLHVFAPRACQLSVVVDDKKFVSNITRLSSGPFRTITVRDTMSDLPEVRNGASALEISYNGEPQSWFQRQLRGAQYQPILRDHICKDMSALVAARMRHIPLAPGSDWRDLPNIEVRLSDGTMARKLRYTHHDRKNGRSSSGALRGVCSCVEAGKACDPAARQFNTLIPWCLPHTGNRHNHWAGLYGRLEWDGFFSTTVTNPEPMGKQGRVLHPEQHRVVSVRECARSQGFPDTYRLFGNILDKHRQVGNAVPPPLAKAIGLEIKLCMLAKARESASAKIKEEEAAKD
Chain of UniProt P51798 (P51798 whole entry): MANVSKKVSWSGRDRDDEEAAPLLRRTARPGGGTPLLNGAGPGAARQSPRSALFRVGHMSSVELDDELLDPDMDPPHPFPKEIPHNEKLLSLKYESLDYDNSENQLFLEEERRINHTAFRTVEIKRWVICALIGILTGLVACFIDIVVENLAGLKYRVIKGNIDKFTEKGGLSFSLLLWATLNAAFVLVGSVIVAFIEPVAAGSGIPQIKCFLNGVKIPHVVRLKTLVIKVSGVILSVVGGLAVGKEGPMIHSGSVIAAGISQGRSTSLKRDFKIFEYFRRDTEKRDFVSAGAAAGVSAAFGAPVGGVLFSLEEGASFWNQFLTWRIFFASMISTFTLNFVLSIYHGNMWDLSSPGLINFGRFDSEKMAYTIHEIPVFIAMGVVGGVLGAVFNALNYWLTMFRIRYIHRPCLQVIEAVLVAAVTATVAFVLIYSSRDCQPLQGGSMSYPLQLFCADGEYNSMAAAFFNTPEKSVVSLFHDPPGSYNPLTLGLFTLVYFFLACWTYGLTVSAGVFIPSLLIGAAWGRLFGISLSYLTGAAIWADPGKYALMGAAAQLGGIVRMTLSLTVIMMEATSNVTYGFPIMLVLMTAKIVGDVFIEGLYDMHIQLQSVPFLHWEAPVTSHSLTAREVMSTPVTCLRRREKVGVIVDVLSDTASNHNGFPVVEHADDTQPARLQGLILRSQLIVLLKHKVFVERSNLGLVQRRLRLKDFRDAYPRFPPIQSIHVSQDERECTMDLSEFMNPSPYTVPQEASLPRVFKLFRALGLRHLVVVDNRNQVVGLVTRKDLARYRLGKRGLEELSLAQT
Chain of UniProt Q7L5N1 (Q7L5N1 whole entry): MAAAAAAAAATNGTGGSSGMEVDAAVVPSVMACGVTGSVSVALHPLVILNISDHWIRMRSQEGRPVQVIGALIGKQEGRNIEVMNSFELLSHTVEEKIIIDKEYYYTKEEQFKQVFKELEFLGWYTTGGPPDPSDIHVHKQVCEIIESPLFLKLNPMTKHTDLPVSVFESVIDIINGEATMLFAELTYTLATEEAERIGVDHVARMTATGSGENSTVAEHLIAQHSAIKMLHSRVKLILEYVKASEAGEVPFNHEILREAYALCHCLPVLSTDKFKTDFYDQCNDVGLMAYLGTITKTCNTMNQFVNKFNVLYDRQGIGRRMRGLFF
Chain of UniProt Q9BW66 (Q9BW66 whole entry): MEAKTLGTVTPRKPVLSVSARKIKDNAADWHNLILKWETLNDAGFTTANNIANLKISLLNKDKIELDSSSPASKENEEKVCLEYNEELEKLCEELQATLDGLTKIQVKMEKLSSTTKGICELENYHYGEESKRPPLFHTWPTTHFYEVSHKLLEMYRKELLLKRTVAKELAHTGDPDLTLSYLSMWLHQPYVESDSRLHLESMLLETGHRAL
Chain of UniProt Q9BUP0 (Q9BUP0 whole entry): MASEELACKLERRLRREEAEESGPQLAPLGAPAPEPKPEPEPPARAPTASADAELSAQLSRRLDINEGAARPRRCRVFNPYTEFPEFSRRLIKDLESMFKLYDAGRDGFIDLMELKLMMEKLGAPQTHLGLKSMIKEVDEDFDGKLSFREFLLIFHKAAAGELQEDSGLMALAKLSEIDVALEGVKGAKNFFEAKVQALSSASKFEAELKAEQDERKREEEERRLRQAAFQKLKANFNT

| Target | pEC50 |
| --- | --- |
| CLCN7 (effect direction: stabilized) (UniProt P51798) | 3.4 |
| CLIC1 (effect direction: stabilized) (UniProt O00299) | < 2.7 |
| CLN5 (effect direction: stabilized) (UniProt O75503) | 3.38 |
| CNOT10 (effect direction: stabilized) (UniProt Q9H9A5) | 3.17 |
| COPS5 (effect direction: stabilized) (UniProt Q92905) | < 2.7 |
| CPSF2 (effect direction: stabilized) (UniProt Q9P2I0) | < 2.7 |
| CRLF3 (effect direction: stabilized) (UniProt Q8IUI8) | < 2.7 |
| CS (effect direction: stabilized) (UniProt O75390) | < 2.7 |
| CSE1L (effect direction: stabilized) (UniProt P55060) | 3.69 |
| CTBP1 (effect direction: stabilized) (UniProt Q13363) | 2.87 |
| CTBS (effect direction: stabilized) (UniProt Q01459) | 2.87 |
| CTNNBL1 (effect direction: stabilized) (UniProt Q8WYA6) | 3.08 |
| CTSA (effect direction: stabilized) (UniProt P10619) | 3.12 |
| CYB5R1 (effect direction: stabilized) (UniProt Q9UHQ9) | < 2.7 |
| DARS2 (effect direction: stabilized) (UniProt Q6PI48) | 4.12 |
| DCPS (effect direction: stabilized) (UniProt Q96C86) | < 2.7 |
| DDB2 (effect direction: stabilized) (UniProt Q92466) | 3.2 |
| DDHD2 (effect direction: stabilized) (UniProt O94830) | < 2.7 |
| DDX11L8 (effect direction: stabilized) (UniProt A8MPP1) | 3.15 |
| DDX19A (effect direction: stabilized) (UniProt Q9NUU7) | 3.75 |
| DDX56 (effect direction: stabilized) (UniProt Q9NY93) | 3.68 |

| Target | pEC50 |
| --- | --- |
| DECR1 (effect direction: stabilized) (UniProt Q16698) | < 2.7 |
| DERA (effect direction: stabilized) (UniProt Q9Y315) | 3.16 |
| DHCR24 (effect direction: stabilized) (UniProt Q15392) | 3.66 |
| DHX36 (effect direction: stabilized) (UniProt Q9H2U1) | 3.99 |
| DHX40 (effect direction: stabilized) (UniProt Q8IX18) | 3.44 |
| DIS3L2 (effect direction: stabilized) (UniProt Q8IYB7) | 3.42 |
| DLGAP5 (effect direction: destabilized) (UniProt Q15398) | 2.82 |
| DNAJC13 (effect direction: stabilized) (UniProt O75165) | 2.86 |
| DNMT1 (effect direction: destabilized) (UniProt P26358) | 2.98 |
| DUS3L (effect direction: stabilized) (UniProt Q96G46) | 2.91 |
| DYNC1H1 (effect direction: stabilized) (UniProt Q14204) | 3.39 |
| EDF1 (effect direction: stabilized) (UniProt O60869) | < 2.7 |
| EEF1G (effect direction: stabilized) (UniProt P26641) | < 2.7 |
| EFHD1 (effect direction: destabilized) (UniProt Q9BUP0) | 3.18 |
| EHD4 (effect direction: stabilized) (UniProt Q9H223) | 3.86 |
| EIF2B3 (effect direction: stabilized) (UniProt Q9NR50) | 3.82 |
| EIF3K (effect direction: stabilized) (UniProt Q9UBQ5) | < 2.7 |
| EIF3L (effect direction: stabilized) (UniProt Q9Y262) | < 2.7 |
| EIF4A3 (effect direction: stabilized) (UniProt P38919) | 3.68 |
| EIF4G1 (effect direction: stabilized) (UniProt Q04637) | 2.71 |
| EIF4G2 (effect direction: stabilized) (UniProt P78344) | < 2.7 |

| Target | pEC50 |
| --- | --- |
| EIF5 (effect direction: stabilized) (UniProt P55010) | < 2.7 |
| ELAVL1 (effect direction: stabilized) (UniProt Q15717) | 3.02 |
| EMG1 (effect direction: stabilized) (UniProt Q92979) | 5.25 |
| EML4 (effect direction: destabilized) (UniProt Q9HC35) | 2.93 |
| ENO3 (effect direction: destabilized) (UniProt P13929) | < 2.7 |
| EPRS (effect direction: destabilized) (UniProt P07814) | 4.04 |
| EPS15L1 (effect direction: destabilized) (UniProt Q9UBC2) | 2.94 |
| ETFA (effect direction: stabilized) (UniProt P13804) | < 2.7 |
| EXOC2 (effect direction: stabilized) (UniProt Q96KP1) | 3 |
| FAF1 (effect direction: stabilized) (UniProt Q9UNN5) | 2.79 |
| FAHD2A (effect direction: destabilized) (UniProt Q96GK7) | < 2.7 |
| FAM20B (effect direction: stabilized) (UniProt O75063) | 3.12 |
| FAM49B (effect direction: stabilized) (UniProt Q9NUQ9) | 2.78 |
| FAM118A (effect direction: stabilized) (UniProt Q9NWS6) | 3.19 |
| FAM162A (effect direction: destabilized) (UniProt Q96A26) | 3.13 |
| FARSA (effect direction: stabilized) (UniProt Q9Y285) | 3.47 |
| FARSB (effect direction: stabilized) (UniProt Q9NSD9) | 3.16 |
| FBL (effect direction: destabilized) (UniProt P22087) | 3.44 |
| FDXR (effect direction: stabilized) (UniProt P22570) | 3.26 |
| FH (effect direction: stabilized) (UniProt P07954) | 3.08 |

Results, then the target that gave them:

| pEC50 | Target |
| --- | --- |
| < 2.7 | CHORDC1 (effect direction: stabilized) (UniProt Q9UHD1) |
| 2.98 | CINP (effect direction: stabilized) (UniProt Q9BW66) |
| 3.23 | CLCN3 (effect direction: stabilized) (UniProt P51790) |
| 2.92 | CLYBL (effect direction: destabilized) (UniProt Q8N0X4) |
| 3.27 | CMPK1 (effect direction: stabilized) (UniProt P30085) |
| 3.41 | CNOT1 (effect direction: stabilized) (UniProt A5YKK6) |
| 2.77 | CNOT2 (effect direction: stabilized) (UniProt Q9NZN8) |
| < 2.7 | COPB2 (effect direction: stabilized) (UniProt P35606) |
| < 2.7 | COPS6 (effect direction: stabilized) (UniProt Q7L5N1) |
| < 2.7 | CPSF1 (effect direction: stabilized) (UniProt Q10570) |
| 3.34 | CTSB (effect direction: stabilized) (UniProt P07858) |
| 3.11 | CTSD (effect direction: stabilized) (UniProt P07339) |
| 4.02 | CYB5R3 (effect direction: stabilized) (UniProt P00387) |
| < 2.7 | DCTN1 (effect direction: stabilized) (UniProt Q14203) |
| 3.48 | DDX20 (effect direction: stabilized) (UniProt Q9UHI6) |
| 3.93 | DDX49 (effect direction: stabilized) (UniProt Q9Y6V7) |
| 4.14 | DHX16 (effect direction: stabilized) (UniProt O60231) |
| 4.17 | DHX57 (effect direction: stabilized) (UniProt Q6P158) |
| < 2.7 | DNAJA2 (effect direction: stabilized) (UniProt O60884) |
| < 2.7 | DRAP1 (effect direction: destabilized) (UniProt Q14919) |
| < 2.7 | DUSP12 (effect direction: stabilized) (UniProt Q9UNI6) |
| 3.49 | DYRK1A (effect direction: stabilized) (UniProt Q13627) |
| < 2.7 | EEF1D (effect direction: stabilized) (UniProt P29692) |
| 3.08 | EFHD2 (effect direction: destabilized) (UniProt Q96C19) |
| 2.83 | EIF2B2 (effect direction: stabilized) (UniProt P49770) |
| 4.48 | EIF3A (effect direction: destabilized) (UniProt Q14152) |
| < 2.7 | ENO1 (effect direction: destabilized) (UniProt P06733) |
| 2.99 | ENO2 (effect direction: destabilized) (UniProt P09104) |
| 3.82 | FIGNL1 (effect direction: stabilized) (UniProt Q6PIW4) |
